Laboratory results: US10780094B2, “Use of carbonic anhydrase inhibitors for treatment of neurological and psychiatric disorders” (New York University, priority 2016, dated 2020)

What was measured:
[1] = tested on: caspase 3/7 in glial cells; test: Active caspase 3 staining and Caspase-Glo 3/7 activity after Aβ challenge; format: cell-based, human; details: Aβ co-incubated with MTZ at both concentrations (100, 300 μM); 24 hours
Description: (§1) Caspase 9 and caspase 3/7 activation was measured by luminescent assays (Caspase-Glo 9 and caspase-Glo 3/7, Promega, Madison, Wis.), in cells treated with the Aβ peptides in DMEM without FBS. Briefly, 10,000 cells/well were plated in 96 wells plates and incubated for 24 hours with the freshly solubilized Aβ peptides. Caspase-Glo reagent was added to the cell cultures resulting in cell lysis, followed by caspase cleavage of the substrate and generation of a luminescent signal produced by the luciferase reaction. After 40 minutes incubation, the amount of caspase activity was evaluated in a plate-reading luminometer (Synergy HT Multi-Mode Microplate Reader, Biotek, Winooski, Vt.) as described in (Fossati et al., 2012b). To inhibit non-specific background activity, the proteasome inhibitor MG-132 was added to the Caspase-Glo reagent before the experiment as indicated by the manufacturer. In all cases results are expressed as fold-change compared to untreated control cells.
(§2) SHSY-5Y and Glioma cells were plated on chamber slides as above. Slides were pre-coated with Poly-D-Lysine 30 μg/ml for 2 hours for SHSY-5Y cells. […]

[2] = tested on: caspase 3/7 in neuronal SHSY-5Y cells; test: as above; format: cell-based, human; details: Aβ co-incubated with MTZ at both concentrations (100, 300 μM); 24 hours
Description: as §1, §2

CC(=O)/N=c1/sc(S(N)(=O)=O)nn1C [MTZ, methazolamide]
active-caspase 3 staining and activity of caspases 3/7 [1]: greatly suppressed
active-caspase 3 staining and activity of caspases 3/7 [2]: greatly suppressed
